Read-outs that look alike come from different tables or passages of the source.
What was measured:
Format in all cases: cell-based
[1] = system: human hepatoma cells (HepG2); experiment: MTT tumor cell proliferation inhibition test, HepG2; details: read-out: Half Inhibitory Concentration IC50, HepG2
Description: (§1) The gossypol eflornithine Schiff base compound was subjected to tumor cell proliferation inhibition test, and conventional MTT method was used.
(§2) Cell lines: human hepatoma cells (HepG2), human lung cancer cells (A-549), human gastric cancer cells (SGC-7901). The culture medium was DMEM+15% NBS+double antibody.
(§3) Sample solution preparation: after dissolving with DMSO (Merck), PBS (−) was added to obtain 100 μmol/L solution or homogeneous suspension. The solution was diluted with PBS (−) in DMSO to a final concentration of 0.1, 1, 10, 20, 40, 60, 80, 100 μmol/L.
(§4) Gossypol and eflornithine used as control solution, prepared under the same condition.
(§5) Cell culture: adherent growth Tumor cells were cultured in 1640 medium containing 10% inactivated neonatal bovine serum and penicillin, streptomycin (1 million U/L), placed in carbon dioxide incubator at 37° C., 5% CO2, and saturated humidity. Cells were treated serially passaged 2-3 times. The first culture was washed with PBS 2 times, and digested with trypsin. Fresh culture medium was added evenly, cells were adjusted to an appropriate concentration and transferred into a new culture flask. […]
(§6) Experimental Principle: Living cells mitochondria in the dehydrogenase can reduce yellow MTT to water-insoluble blue-violet product MT (MTT formazan), deposited in the cells. […] DMSO can dissolve blue violet crystals, and the color depth is proportional to the amount contained, so the absorbance measured by the microplate reader can reflect the cell viability.
(§7) Methods: The exponential phase cells were digested and counted and seeded in 96-well plates at a density of 2×10^4/mL at 100 μl per well. […] After 48 hours, the supernatant was discarded, and 100 μl of MTT ((2-(4,5-dimethyl-2-thiazolyl)-3,5-diphenyl-2H-[…]) (1 mg/mL) was added to each well. After another 4 hours, the supernatant was discarded, and 100 μl of DMSO was added to each well. After mixing, the absorbance was measured at 570 nm using a microplate reader. An IC50 calculation software was used to determine the half inhibitory concentration (IC50).

[2] = system: human lung cancer cells (A-549); experiment: MTT tumor cell proliferation inhibition test, A-549; details: read-out: Half Inhibitory Concentration IC50, A549
Description: as §1, §2, §3, §4, §5, §6, §7

[3] = system: human gastric cancer cells (SGC-7901); experiment: MTT tumor cell proliferation inhibition test, SGC-7901; details: for IC50: Homo sapiens, read-out: Half Inhibitory Concentration IC50, SGC-7901
Description: as §1, §2, §3, §4
Cell culture: adherent growth Tumor cells were cultured in 1640 medium containing 10% inactivated neonatal bovine serum and penicillin, streptomycin (1 million U/L), placed in carbon dioxide incubator at 37° C., 5% CO2, and saturated humidity. Cells were treated serially passaged 2-3 times. The first culture was washed with PBS 2 times, and digested with trypsin. Fresh culture medium was added evenly, cells were adjusted to an appropriate concentration and transferred into a new culture flask. Cell in an exponential phase were chosen for the tests.
MTT Assay for Cell Viability and IC50 Determination:
Experimental Principle: Living cells mitochondria in the dehydrogenase can reduce yellow MTT to water-insoluble blue-violet product MT (MTT formazan), deposited in the cells. The amount of production is proportional to the number of living cells. […] DMSO can dissolve blue violet crystals, and the color depth is proportional to the amount contained, so the absorbance measured by the microplate reader can reflect the cell viability.
Methods: The exponential phase cells were digested and counted and seeded in 96-well plates at a density of 2×10^4/mL at 100 μl per well. After 24 hours of incubation, the cells to be tested were treated with 0.1, 1, 10, 20, 40, 60, 80, 100 μmol/L of the compounds. Each experimental group had 5 wells in each concentration, and the culture medium containing 0.4% DMSO was used as control. After 48 hours, the supernatant was discarded, and 100 μl of MTT ((2-(4,5-dimethyl-2-thiazolyl)-3,5-diphenyl-2H-[…]) (1 mg/mL) was added to each well. After another 4 hours, the supernatant was discarded, and 100 μl of DMSO was added to each well. After mixing, the absorbance was measured at 570 nm using a microplate reader. An IC50 calculation software was used to determine the half inhibitory concentration (IC50).

[4] = HepG2 cells, MTT, 48 hours treatment
[5] = A549 cells, MTT, 48 hours treatment
[6] = SGC-7901 cells, MTT, 48 hours treatment

Row | IC50 [1, 4] [µM] | IC50 [2, 5] [µM] | IC50 [3, 6] [µM] | SMILES | IC50 ([1]; HepG2, 48 h) [µM] | IC50 ([2]; A549, 48 h) [µM] | IC50 ([3]; SGC-7901, 48 h) [µM] | antitumor activity against SGC-7901 cell lines compared with gossypol ([3]; SGC-7901 cells, MTT, comparison with gossypol)
1 |  |  |  | Cc1cc2c(C(C)C)c(O)c(O)c(C=O)c2c(O)c1-c1c(C)cc2c(C(C)C)c(O)c(O)c(C=O)c2c1O [Gossypol] | 9.55 ± 0.41 | 13 ± 0.32 | 19.8 ± 0.66 | 
2 | > 100 | > 100 | > 100 | NCCCC(N)(C(=O)O)C(F)F (stereo not shown) [Eflornithine] |  |  |  | 
3 | 20.1 ± 0.57 | 11.6 ± 0.2 | 11.1 ± 0.34 | Cc1cc2c(C(C)C)c(O)c(O)c(/C=N\CCCC(N)(C(=O)O)C(F)F)c2c(O)c1-c1c(C)cc2c(C(C)C)c(O)c(O)c(/C=N\CCCC(N)(C(=O)O)C(F)F)c2c1O (stereo not shown) [gossypol eflornithine Schiff base compound] |  |  |  | better antitumor activity against SGC-7901 cell lines than gossypol

From US10336689B1, “Gossypol eflornithine Schiff base compound with antitumor activities and a method of preparing the same” (SHAANXI UNIVERSITY OF SCIENCE AND TECHNOLOGY, priority 2019, dated 2019)
